Assay results reported in patent publication US12433876B2, “Septin inhibitors for treatment of cancers” (UNIVERSITY OF ROCHESTER, priority 2019, dated 2025).

Assays:
[1] = system: HE4; assay: HE4 ELISA, secreted and intracellular levels; format: cell-based, human
Protocol: Cell lines, Culture, and Reagents. Cells were maintained in either DMEM (SKOV-3, KLE, OVCAR-3, OVCAR8-C5 and IGROV-1) or RPMI-1640 (ECC-1 and HCH-1), supplemented with 10% fetal calf serum (or 20% for OVCAR-3), penicillin (100 units/mL), and streptomycin (100 μg/mL) at 37° C. with 5% CO2 in a humidified incubator. Antibodies were purchased from Abcam (septin-2; ab179436) and Cell Signaling Technology; ERK (9102), p-ERK (4370), -actin (3700), u-Tubulin (2144), EGFR (4267) and HER2 (4290). FCF was purchased from Abcam. All other chemicals were from Sigma Aldrich. Synthesis of Derivaties. […] The reaction was monitored using thin-layer chromatography plates with DCM-MeOH or pure ethyl acetate as eluent. Spots were monitored in a UV chamber. The reaction mixture, upon completion of the reaction, was poured into wet ice mixture and triturated, then the separated solid was filtered by vacuum. The product was washed with hexane, followed by diethyl ether, and was dried under vacuum. The compounds were characterized by spectrophotometric techniques. Quantitative Real-Time PCR. The indicated cell lines were transfected with siRNA targeting septin-2 or non-targeting control siRNA (Santa Cruz Biotechnology: sc-37007 or sc-40936) using Lipofectamine 3000 (Invitrogen). Tri reagent and Direct-zol kit (Zymo Research) were used to lyse and isolate total RNA. Reverse transcription was performed using iScript cDNA synthesis kit (BioRad), both following the manufacturer's recommendations. Quantitative real-time PCR was conducted using QuantStudio 12 K Flex Real-Time PCR System (ABI) and the Taqman Gene Expression Assay (ABI) consisting of the FAM-labeled probes as follows: SEPT2 (Hs01565417_ml); WFDC2 (Hs00899484_ml); TBP (Hs00427620_ml) or B2M (Hs00187842_ml), which was used as reference for normalization. Cell Viability, Proliferation and Apoptosis Assay. Cell viability, proliferation, and cellular apoptosis were measured using the MTS (Promega), BrdU cell proliferation (Cell Signaling Technology), and Caspase-Glo 3/7 apoptosis detection (Promega) assays, following the respective manufacturer's recommendations with suitable modification. Enzyme-Linked Immunosorbent Assay (ELISA) and Immunoblotting. Cells were maintained overnight in the culture media described above. […] Following the treatment, cell lysates and supernatants were collected and subjected to HE4 assay (Human HE4 Quantikine ELISA Kit, R&D Systems). The amount of HE4 in supernatant was normalized to the protein concentration of matching cell lysate. The levels of HER2 were determined by Human Total ErbB2/Her2 DuoSet IC ELISA (R&D systems. Wester blot analysis was conducted using the protocol previously published (see Kim, K. K. et al. Tetrathiomolybdate inhibits mitochondrial complex IV and mediates degradation of hypoxia-inducible factor-1alpha in cancer cells. Sci. Rep. 5, 14296, 2015). Data Acquisition and Statistical Analysis. Gene expression profiling of septins, comparing microdissected normal ovarian stroma (N=8) against that of tumor stroma samples (N=31) from high grade serous ovarian cancer patients, was obtained from Mixed Ovarian Cancer (CAFs)-Wong-77-u133p2 data-set through ‘R2: Genomics Analysis and Visualization Platform (http://r2/am/n1). […] Survival curves between septin high and low population and their statistical significance were analyzed using GraphPad Prism software (Mantel-Cox test). […]

[2] = molecular target: T1, septin-2 (Homo sapiens, UniProt Q15019); assay: Immunoblot of septin-2 expression; format: cell-based; details: 48 hours
T1 sequence (Q15019 1-361): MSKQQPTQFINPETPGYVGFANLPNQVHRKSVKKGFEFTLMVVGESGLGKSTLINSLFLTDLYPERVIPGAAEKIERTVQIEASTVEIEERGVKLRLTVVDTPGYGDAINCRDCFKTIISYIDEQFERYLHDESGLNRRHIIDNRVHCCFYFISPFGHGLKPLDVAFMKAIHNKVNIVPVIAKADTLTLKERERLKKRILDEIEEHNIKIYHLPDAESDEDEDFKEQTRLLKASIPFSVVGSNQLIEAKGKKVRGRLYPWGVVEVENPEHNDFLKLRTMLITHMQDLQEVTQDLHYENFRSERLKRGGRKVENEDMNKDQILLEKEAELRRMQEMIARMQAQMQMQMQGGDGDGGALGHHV

[3] = system: SKOV-3 xenograft tumors; assay: SKOV-3 xenograft tumor growth; format: in vivo, NSG mice
Protocol: NSG mice 356 were implanted in their left flank with 1 million PANC-1 (HER2+, n=12), JIMT1 (number of animals=10) and SKOV-3 (number of animals=10) cells each in matrigel:media (1:1). […] The vehicle formulation was: 40% Hydroxypropyl-beta-cyclodextrin [Acros Organics] & solutol HS15 (Sigma] in sterile water). 25 mg/kg equivalent of UR214-9 (1 uL=200 ug in DMSO) was dissolved in 600 uL PBS+400 uL of the vehicle and vortexed to obtain a clear suspension.

[4] = system: pSTAT-3; assay: Immunoblot of phosphorylated STAT-3; format: cell-based
[5] = system: BXPC-3 cells; assay: Cell cycle analysis (PI, flow cytometry), BXPC-3; format: cell-based, human; details: BXPC-3, 100 nM
Protocol: For cell cycle analysis, BXPC-3 and PANC-1 and JIMT-1 cells (100,000/well) were seeded overnight in a 6 well dishes and allowed to adhere overnight. Media was replaced with fresh complete medium supplemented with DMSO or UR214-9 (100 nM and 3 μM) and cells were incubated for 72 hours. The media containing the drugs was removed and cells were washed twice with PBS and trypsinized gently. The cells were collected in 15 mL tubes, complete DMEM media was added to block trypsin and cells were centrifuged. The supernatants were removed and cells were gently treated with 70% cold-EtOH for 30 minutes. The fixed cells were centrifuged and the pellets obtained were collected in flow cytometry tubes and stained with preformulated PI/RNase solution (Cell Signaling Technology, catalog number: 4087s) for 30 minutes. The PI content was analyzed using a flow cytometer. Data was processed using Flowjo software.

[6] = system: septin-7; assay: Immunoblot of septin-7 expression; format: cell-based; details: PANC-1, 1.0 and 10.0 μM, 48 hours
[7] = system: JIMT1 xenograft tumors; assay: JIMT1 xenograft tumor growth; format: in vivo, NSG mice; details: 25 mg/kg IP, 28 days

SMILES | HE4 secretion ([1]; ECC-1 and HCH-1 cells, 5 hours) | HE4 secretion ([1]; OVCAR8-C5, 300 μM for 7 h) | intracellular levels of HE4 ([1]; OVCAR8-C5, 300 μM for 7 h) | septin-2 protein expression levels (western blot) ([2]; MDA-MB-231, JIMT-1 and MCF-7 cells, 10 and 30 μM) | septin-2 expression (immunoblot) ([2]; PANC-1, 1.0 and 10.0 μM) | tumor growth during treatment ([3]; UR214-9 25 mg/kg, M-F, I.P., trastuzumab 10 mg/kg, M) | weight of extracted tumors ([3]; day 53 since inoculation) | tumor size after treatments were stopped ([3]; treatment stopped on day 27) | phosphorylation of STAT-3 ([4]; MDA-MB-231, JIMT-1 and MCF-7 cells, 10 and 30 μM, 24 hours) | phosphorylated STAT-3 ([4]; PANC-1) | cell cycle distribution [5] | septin-7 expression (immunoblot) [6] | xenograft tumor growth (tumor volume and weight) [7]
O=C(Nc1ccccc1)Nc1ccnc(Cl)c1 [FCF, N-(2-chloro-4-pyridyl)-N′-phenylurea, reference compound] | dose-dependent | decrease in HE4 secretion | marginal increase |  |  |  |  |  |  |  |  |  | 
O=C(Nc1cc(Cl)nc(Cl)c1)Nc1cccc(SC(F)(F)F)c1F [UR214-9] |  |  |  | does not alter the protein expression levels | unaffected | controlled the growth of tumors | matched the average size seen in vehicle group | reached the average size in control | reduced phosphorylation of STAT-3 | reduced phosphorylated STAT-3 | no change in cell cycle distribution | unaffected | significant growth control
